In patent US20240374552A1, “Compositions and Methods for Preventing or Reducing the Risk of Metabolic Syndrome” (priority 2021, published 2024):
Converted amounts (≈) assume the structure as drawn.

How the values were obtained:
[1] = test system: mice; test: Subacute toxicity, 14-day daily intragastric administration; type: in vivo
Description: Animal studies in male and female mice of the CDI strain, and male rats of the Wistar strain were used.
During the quarantine period (15 days) they were kept in a chamber with conditions of (22+2° C., 55+5% humidity and a light/dark cycle of 12:12 h), with food and water ad libitum. Prior to the start of the experiment, the animals (mice and rats) were deprived of food for 4 h, and recovered 2 h after the administration of the drug.
The test animals were randomly divided into experimental groups corresponding to different doses of the drug, as shown in Table 2.

[2] = test system: rat; conditions: cited from earlier work
[3] = Acute oral gavage toxicity; type: in vivo
[4] = in vivo; conditions: 10 mg, t1/2 (h)
[5] = test system: mice; test: Evaluation toxicity, 90-day daily intragastric administration in mice; type: in vivo; conditions: for Percentage of dead mice (%): purity min 95%
Description: To investigate the toxicity of tyrphostin AG17 the following doses were tested in mice, the animals were randomly divided into experimental groups corresponding to different doses of tyrphostin. Tyrphostin was administered intragastric via daily for 90 days, after 90 days, the mice were weighed and sacrificed by cervical dislocation.
In a second evaluation for the treatments with 5.50 mg/kg to 55.50 mg/kg of tyrphostin, using a lot tyrphostin AG17 with a minimum purity of 98% is used; the percentage of dead mice is reduced to 0% and in the case of the treatment with 100.00 mg/kg, the deaths are reduced to 10%.

[6] = pH 7.2; cited from earlier work
[7] = in vivo, 10 mg

CC(C)(C)c1cc(C=C(C#N)C#N)cc(C(C)(C)C)c1O [tyrphostin AG17, Tyrphostin AG17]
Death, share of the population ([1]; 100.00 mg/kg): 40%
Time until recovery from lethargy ([1]; 5.50 to 55.50 mg/kg): 12 h
Signs of subacute toxicity presented ([1]; AT1: 0.175 mg/Kg daily 14 days): No apparent signs
Signs of subacute toxicity presented ([1]; AT2: 0.55 mg/Kg daily 14 days): No apparent signs
Signs of subacute toxicity presented ([1]; AT3: 1.75 mg/Kg daily 14 days): No apparent signs
Signs of subacute toxicity presented ([1]; AT4: 5.50 mg/Kg daily 14 days): Lethargy (10%)
Lethargy, share of the population ([1]; AT4 group, 5.50 mg/kg): 10%
Signs of subacute toxicity presented ([1]; AT5: 55.50 mg/Kg daily 14 days): Lethargy (20%)
Lethargy, share of the population ([1]; AT5 group, 55.50 mg/kg): 20%
Signs of subacute toxicity presented ([1]; AT6: 100.00 mg/Kg daily 14 days): Death (40%)
oral LD50 [2]: 87 mg/kg
LD50 ([3]; C57BL/6, mouse, in vivo): 33.3 mg/kg
Behavioral alterations ([3]; doses 1.75, 5.5 and 17.5 mg/kg): inhibition in locomotion and piloerection
Lethal effect ([3]; doses of 1.75, 5.5 and 17.5 mg/kg): no lethal effect observed
Mortality ([3]; doses of 28, 40 and 55.5 mg/kg): increase in mortality
half-life ([4]; Geometric Mean): 80.6 h
half-life ([4]; Mean): 82.2 h
half-life ([4]; Median): 75.2 h
Percentage of dead mice (%) ([5]; T1: 0.0001 mg/Kg daily 90 days): 0%
Percentage of dead mice (%) ([5]; T3: 0.001 mg/Kg daily 90 days): 0%
Percentage of dead mice (%) ([5]; T5: 0.175 mg/Kg daily 90 days): 0%
Percentage of dead mice (%) ([5]; T7: 0.76 mg/Kg daily 90 days): 0%
Percentage of dead mice (%) ([5]; T8: 1.70 mg/Kg daily 90 days): 0%
Percentage of dead mice (%) ([5]; T9: 1.75 mg/Kg daily 90 days): 0%
Signs of toxicity during 90-day treatment ([5]; doses below 1.75 mg/kg): no apparent signs of toxicity
Solubility [6]: ~150 µg/mL (≈ 531 µM)
Vdapa (L), Geometric Mean [7]: 22.038 L
Vdapa (L), Mean [7]: 22.537 L
Vdapa (L), Median [7]: 22.494 L
